# Source: ChEMBL document CHEMBL1221181, “Virtual and biomolecular screening converge on a selective agonist for GPR30” (Nat Chem Biol, 2006)
# The source made the active and inactive calls. No cut-off for these calls is given here.
# Columns and labels:
# [1] = target: Estrogen receptor beta (Homo sapiens) (UniProt Q92731); test: Displacement of E2-Alexa633 from GFP-tagged ERbeta expressed in COS7 cells at 1 uM by FACS; type: cell-based; details: COS-7
# [2] = target: Estrogen receptor beta (Homo sapiens) (UniProt Q92731); test: Agonist activity at GFP-tagged ERbeta expressed in COS7 cells assessed as PI3K activation at 10 nM by PIP3 nuclear accumulation assay; type: functional, cell-based; details: COS-7
# Chain of Estrogen receptor beta (Homo sapiens) (Q92731 whole entry): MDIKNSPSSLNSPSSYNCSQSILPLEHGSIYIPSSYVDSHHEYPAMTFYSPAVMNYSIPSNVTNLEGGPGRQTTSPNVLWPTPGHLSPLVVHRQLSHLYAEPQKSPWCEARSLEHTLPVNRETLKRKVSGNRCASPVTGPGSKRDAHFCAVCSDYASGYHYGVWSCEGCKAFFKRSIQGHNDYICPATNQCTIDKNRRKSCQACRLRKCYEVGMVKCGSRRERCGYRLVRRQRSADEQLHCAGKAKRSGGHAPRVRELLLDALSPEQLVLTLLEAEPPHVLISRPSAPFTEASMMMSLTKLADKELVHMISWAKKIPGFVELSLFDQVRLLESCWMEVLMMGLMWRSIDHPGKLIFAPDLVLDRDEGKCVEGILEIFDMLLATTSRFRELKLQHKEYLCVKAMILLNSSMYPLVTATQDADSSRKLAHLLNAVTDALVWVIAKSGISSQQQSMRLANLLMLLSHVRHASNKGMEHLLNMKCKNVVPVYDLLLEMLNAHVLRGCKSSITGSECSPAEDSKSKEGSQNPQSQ
structure (smiles),measurement,setting,value
CC(=O)c1ccc2c(c1)[C@@H]1C=CC[C@@H]1[C@H](c1cc3c(cc1Br)OCO3)N2,Activity,[1],inactive
same,Activity,[2],inactive
